According to US20220202884A1 (SENECA THERAPEUTICS, INC., priority 2019, published 2022):
Where a name gives a salt, the structure may show the parent alone.

Assays:
[1] = test system: U2OS cells (osteosarcoma); assay: SVV mediated killing of drug-pretreated U2OS cells; type: cell-based; conditions: U2OS cells pretreated for 24 hours with compound, FIG. 3
Description: U2OS cells (osteosarcoma) were pretreated for 24 hours in pharmaceutical compounds to disrupt innate antiviral responses to allow increased viral mediated killing.

[2] = test system: HCT-116 cells (Colorectal cancer cells); assay: SVV mediated killing of drug-pretreated HCT-116 cells; type: cell-based, human; conditions: HCT-116 cells pretreated for 24 hours with compound, FIG. 4
Description: HCT-116 cells (Colorectal cancer cells) were pretreated for 24 hours in pharmaceutical compounds to disrupt innate antiviral responses to allow increased viral mediated killing.

[3] = test system: HTB-126 cells (triple negative breast cancer, TNBC); assay: Seneca Valley Virus (SVV) mediated killing of drug-pretreated HTB-126 cells; type: cell-based
From the text: Standard deviations of replicates are presented as error bars (VP/cell with 1 PFU or TCID50 unit per 100 VPs).
(§1) In certain instances, infection with Seneca Valley Virus can be toxic to triple negative breast cancer cell lines. In these cases, it is necessary to reduce innate antiviral responses through the use of certain approved pharmaceutical compounds (see FIG. 1, FIG. 2 and FIG. 5).

[4] = test system: triple negative breast cancer cells (BT-549); assay: SVV infection, replication and killing of drug-treated BT-549 cells; type: cell-based; conditions: FIG. 2
From the text: as §1

| Compound | Seneca Valley Virus mediated cell killing [1] | Seneca Valley Virus mediated cell killing [2] | Seneca Valley Virus mediated cell killing ([2]; listed as dimethyl fumarate) | Seneca Valley Virus mediated cell killing ([1]; listed as tofacitinib) | enhancement of SVV replication and cell death ([3]; FIG. 5, TNBC cell lines, 1PFU/cell of SVV and 0.8 uM of Tofacintinib) | susceptibility to virus mediated killing by SVV ([3]; HTB-126 cells, FIG. 1 (pretreated 24 hours in 12.5 micromolar tofacitinib, then 50 VP of SVV/cell) and FIG. 5) | Seneca Valley Virus mediated cell killing ([2]; listed as tofacitnib) | susceptibility to virus mediated killing by SVV [4] | Seneca Valley Virus mediated cell killing ([2]; listed as vorinostat) |
| --- | --- | --- | --- | --- | --- | --- | --- | --- | --- |
| COC(=O)/C=C/C(=O)OC [Dimethyl fumarate, dimethyl fumarate] | increased Seneca Valley Virus mediated cell killing | mainly caused by MAC inhibitors (Panobinostat or Vorinostat) instead of the JAK inhibitors | smaller effect | – | – | – | – | – | – |
| C[C@@H]1CCN(C(=O)CC#N)C[C@@H]1N(C)c1ncnc2[nH]ccc12 [Tofacitinib] | augmented SVV mediated cell killing | mainly caused by MAC inhibitors (Panobinostat or Vorinostat) instead of the JAK inhibitors | – | increased Seneca Valley Virus mediated cell killing | substantial enhancement of SVV replication in TNBC cell lines and cell death | modified and favored the susceptibility to virus mediated killing by SVV | smaller effect | modified and favored the susceptibility to virus mediated killing by SVV | – |
| O=C(CCCCCCC(=O)Nc1ccccc1)NO [Vorinostat] | – | increase in cell killing was mainly caused by MAC inhibitors | – | – | – | – | – | modified and favored the susceptibility to virus mediated killing by SVV | increased Seneca Valley Virus mediated cell killing |
